What was measured:
[1] = test system: TEC-family kinases (ITK, TEC, and TXK); experiment: Cellular IL-2 production assay in Jurkat cells (CD3/CD28 stimulation, ELISA); assay type: cell-based; conditions: Homo sapiens, read-out: IC50, IL2-Production
Protocol: The cellular IL-2 Production assay was carried out using Jurkat cells.

[2] = test system: Human CD4 T cell; experiment: Human CD4 T cell proliferation assay (Cell Titer Glo); assay type: cell-based; conditions: 96 h, anti-CD3/anti-CD28 beads, 4 days
Protocol: In the Human CD4 T cell assay, primary human CD4+ T cells isolated from a leukopak were cultured in the presence of anti-CD^3/anti-CD28 beads to stimulate T cell proliferation.

[3] = biological target: T1, TEC (Homo sapiens, UniProt P42680); experiment: Biochemical TEC assay (Caliper LabChip)
T1 sequence (P42680 1-631): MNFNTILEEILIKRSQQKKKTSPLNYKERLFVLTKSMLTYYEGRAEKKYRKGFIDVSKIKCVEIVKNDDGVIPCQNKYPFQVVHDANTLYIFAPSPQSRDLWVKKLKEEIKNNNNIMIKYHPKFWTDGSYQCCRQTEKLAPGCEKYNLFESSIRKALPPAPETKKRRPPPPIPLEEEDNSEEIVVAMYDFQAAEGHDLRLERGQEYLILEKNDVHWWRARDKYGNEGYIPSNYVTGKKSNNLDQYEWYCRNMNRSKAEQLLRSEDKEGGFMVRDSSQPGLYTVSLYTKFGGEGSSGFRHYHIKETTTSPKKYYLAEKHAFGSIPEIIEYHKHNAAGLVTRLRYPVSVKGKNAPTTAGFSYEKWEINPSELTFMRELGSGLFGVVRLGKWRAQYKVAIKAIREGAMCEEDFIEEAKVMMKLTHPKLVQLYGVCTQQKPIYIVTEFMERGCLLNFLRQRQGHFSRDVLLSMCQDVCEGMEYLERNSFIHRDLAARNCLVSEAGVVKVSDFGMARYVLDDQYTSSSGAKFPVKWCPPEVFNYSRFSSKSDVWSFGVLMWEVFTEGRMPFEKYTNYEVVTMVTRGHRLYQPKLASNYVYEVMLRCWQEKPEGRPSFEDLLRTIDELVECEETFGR

[4] = biological target: T2, TXK (Homo sapiens, UniProt P42681); experiment: Biochemical TXK assay (Caliper LabChip)
T2 sequence (P42681 1-527): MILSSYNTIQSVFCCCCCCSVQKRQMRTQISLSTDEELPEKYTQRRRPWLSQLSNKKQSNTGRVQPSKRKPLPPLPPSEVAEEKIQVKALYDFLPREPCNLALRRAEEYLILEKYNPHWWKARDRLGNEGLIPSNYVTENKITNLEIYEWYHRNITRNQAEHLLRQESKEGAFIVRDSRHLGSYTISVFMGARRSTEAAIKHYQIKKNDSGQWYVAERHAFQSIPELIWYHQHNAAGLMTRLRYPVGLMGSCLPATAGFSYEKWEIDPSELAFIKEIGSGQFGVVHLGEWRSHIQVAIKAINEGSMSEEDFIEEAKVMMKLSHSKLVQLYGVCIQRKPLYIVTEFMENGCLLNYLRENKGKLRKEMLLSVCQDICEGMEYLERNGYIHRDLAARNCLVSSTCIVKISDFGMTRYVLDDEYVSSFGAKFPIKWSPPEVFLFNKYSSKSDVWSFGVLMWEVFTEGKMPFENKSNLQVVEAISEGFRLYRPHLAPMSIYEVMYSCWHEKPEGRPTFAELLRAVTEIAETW
Protocol: The biochemical assays for ITK, TEC and TXK were carried out using Caliper Life Sciences' proprietary LabChip™ technology. This technology uses a microfluidic chip to measure the conversion of a fluorescent peptide substrate to a phosphorylated product. The product conversions were determined in the presence of various compound concentrations and IC50 values were calculated.

[5] = test system: anti-KLH IgM and anti-KLH IgG antibodies; experiment: T-cell dependent antibody response (TDAR) assay in rats, KLH immunization; assay type: in vivo, rat; conditions: for anti-KLH IgG, mean percent difference compared to vehicle controls / anti-KLH IgM, mean percent difference compared to vehicle controls: 30 mg/kg/day oral
Protocol: T-cells play critical roles in immune regulation. T-cell Tec family kinases are important players in T-cell function, which in turn can modulate immune function. COMPOUND A was tested in a T-cell dependent antibody response (TDAR) assay, a frequently used functional assessment of the immune system. […] On study days 11 and 25 for the main study animals and days 28 and 42 for the recovery group, animals received 300 μg of KLH (Keyhole Limpet Hemocyanin) antigen. Samples for serology assessment of anti-KLH IgM and anti-KLH IgG antibodies (study days 19, 21, 23, 25 and 36 prior to dosing from the main study animals; recovery days 42 and 53 prior to KLH injection from the recovery animals) were collected. Immunomodulatory responses in COMPOUND A-treated animals following KLH immunization were noted when values were compared to concurrent vehicle controls. […] The decreases were also observed in mean anti-KLH IgM values on study days 21, 23, 25 (primary response, time course) and day 36 (post boosting) for female rats. For anti-KLH IgG antibodies, decreases in mean concentration were apparent on study days 19, 21, 23 and 25 for both male and female rats. On study day 36, decreases in mean concentration were detected in female rats. Recovery following withdrawal of COMPOUND A treatment was noted. The COMPOUND A-related decrease of anti-KLH antibody production in both male and female rats was reversible. This included both primary response-anti-KLH IgM, and isotype switch measured by secondary anti-KLH IgG production as indicated by values that were similar to concurrent controls at the recovery sampling time points (recovery day 42 and 53).

[6] = test system: Mouse B cell; experiment: cells; conditions: 72 h, read-out: IC50, Mouse B cell proliferation
Protocol: Cells were incubated at 37° C. in the presence of various concentrations of compound. After 3 days, cell viability was measured using Cell Titer Glo.

[7] = test system: BTK (TMD-8); experiment: cells; conditions: Homo sapiens, TMD8, 72 h, read-out: IC50, BTK (TMD-8) proliferation
Protocol: After 3 days, cell viability was measured using Cell Titer Glo.

[8] = female rats, study day 36 (post boosting)

Compound: Cc1cc(C(=O)Nc2nc3cccc(Cl)c3n2[C@@H]2CCCCN(C(=O)/C=C/CN(C)C)C2)ccn1 [COMPOUND A, (R,E)-N-(7-chloro-1-(1-(4-(dimethylamino)but-2-enoyl)azepan-3-yl)-1H-benzo[d]imidazol-2-yl)-2-methylisonicotinamide]
- IC50 [1]: 21 nM
- IC50 [2]: 140 nM
- IC50, TEC biochemical [3]: single digit nM potency
- IC50, TXK biochemical [4]: single digit nM potency
- anti-KLH IgG, mean percent difference compared to vehicle controls ([5]; female rats, study day 19): −96%
- anti-KLH IgM, mean percent difference compared to vehicle controls ([5]; female rats, study day 19): −88%
- anti-KLH IgG, mean percent difference compared to vehicle controls ([5]; female rats, study day 21): −98%
- anti-KLH IgM, mean percent difference compared to vehicle controls ([5]; female rats, study day 21): −75%
- anti-KLH IgG, mean percent difference compared to vehicle controls ([5]; female rats, study day 23): −97%
- anti-KLH IgM, mean percent difference compared to vehicle controls ([5]; female rats, study day 23): −71%
- anti-KLH IgG, mean percent difference compared to vehicle controls ([5]; female rats, study day 25): −96%
- anti-KLH IgM, mean percent difference compared to vehicle controls ([5]; female rats, study day 25): −63%
- anti-KLH IgG, mean percent difference compared to vehicle controls [5, 8]: −69%
- anti-KLH IgM, mean percent difference compared to vehicle controls [5, 8]: −67%
- reversibility of decrease of anti-KLH antibody production after withdrawal of treatment ([5]; male and female rats, 30 mg/kg/day, recovery days 42 and 53): reversible
- anti-KLH IgG, mean percent difference compared to vehicle controls ([5]; male rats, study day 19): −78%
- anti-KLH IgM, mean percent difference compared to vehicle controls ([5]; male rats, study day 19): −67%
- anti-KLH IgG, mean percent difference compared to vehicle controls ([5]; male rats, study day 21): −84%
- anti-KLH IgG, mean percent difference compared to vehicle controls ([5]; male rats, study day 23): −80%
- anti-KLH IgG, mean percent difference compared to vehicle controls ([5]; male rats, study day 25): −83%
- IC50 [6]: 295 nM
- IC50 [7]: 224 nM

Compound: C=CC(=O)N1CCC[C@@H](n2nc(-c3ccc(Oc4ccccc4)cc3)c3c(N)ncnc32)C1 [Ibrutinib, ibrutinib, reference compound]
- IC50 [1]: 284 nM

Reference: patent US20190167694A1, “NEW THERAPEUTICS USES” (NOVARTIS AG, priority 2016, published 2019)
